Peptide text beside a SMILES is read from it. A value given as a limit tells only on which side of the number the result lay.

What is called IC50 is the concentration that inhibits the measured activity by half.

The subject of test [1] is HIV-1. The conditions noted are these: NP2 glioma cells, peptide 0.1 to 10 micromolar.
Procedure: The glioma cell line NP2 over-expressing both CD4 and the appropriate co-receptor (CCR5 or CXCR4) were maintained in DMEM supplemented with 10% FCS. 2×10^4 cells were plated per well of a 48-well plate 24 h prior to infection and grown at 37 C. The cells were then washed, and incubated in DMEM/FCS containing peptide concentrations ranging from 0.1 to 10 micromolar, at 37 C for 30 minutes. 200 focus-forming units of HIV-1 stocks were then added to each well, and the cells incubated at 37 C for a further 2 hours. The cells were then washed twice in PBS and fresh medium replaced. After 3 day's growth the cells were fixed in cold methanol:acetone, and stained in situ for expression of HIV-1 p24 using a monoclonal anti-p24 followed by a secondary anti-mouse beta-galactosidase conjugate. Expression was visualised by X-Gal staining and infectious foci enumerated by light-microscopy.
Test [2] has as its system HSV1. It is filed as cell-based, Human herpes simplex virus type 1. The conditions noted are these: for efficacy for reducing HSV1 infectivity (in words): Examples 2 and 3. The essentials:
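Plaque reduction in Vero monolayers: ~100 pfu HSV1 pre-mixed 10 min at 37 °C with acetylated/amidated peptides in 0.5% FCS medium, inoculated 60–80 min, then carboxymethylcellulose overlay for 22 or 40 h. Plaques counted after fixing and carbol fuchsin staining; IC50 from % of control versus peptide concentration.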

For test [3], the system named is HSV2 clinical isolates. Format: cell-based, Human herpes simplex virus type 2. How it is done:
Plaque assays were performed. The methodology was as described in previous Examples for HSV1 plaque assays (including usage of Vero cells) except HSV2 clinical isolates (provided by Prof. Anthony Hart of Liverpool University) were employed instead.

Test [4] concerns HIV-1 111B. The experiment in a line: HIV-1 111B in C8166 T-cells, syncytia and gp120 ELISA. Format: cell-based, Human Immunodeficiency Virus. The conditions noted are these: 5 days, read-out: IC50 for inhibiting HIV-1 growth. The procedure:
Peptides (prepared as described previously) were diluted in 50 μl aliquots and mixed with T-cells (C8166) at 40,000 cells per well. Next HIV-1 111B was added at a multiplicity of infection (MOI) of 0.01, and the mixture incubated for 5 days at 37° C. Syncytia formation was assessed visually using an inverting microscope, and viral gp120 levels in supernatants assessed by a gp120 ELISA using GNA for antigen capture. 96-well plates coated with 50 ul GNA (Galanthus nivalis) were washed, then treated with 100 μl RPMI (10% foetal calf serum) and left for one hour. After further washing, 25 μl test sample supernatants were added to wells, along with dilutions of infected control samples. After lysis by 3 hr treatment with 0.5% Empigen (detergent used to lyse virus) to all wells, and washing, 50 μl of human anti-HIV sera was added, and plates incubated overnight. After further washing, 50 μl of a 1000× dilution of anti-human Ig peroxidase conjugate was added, and plates incubated at 37° C. for 90 min. After a final wash, 50 ul peroxidase substrate was added to each well, and plates incubated for 10-30 min. Reaction was stopped with 25 μl 2M H2SO4, and A450 measured.

Regarding `CC(=O)N[C@@H](CC(C)C)C(=O)N[C@@H](CCCNC(=N)N)C(=O)N[C@@H](CCCCN)C(=O)N[C@@H](CC(C)C)C(=O)N[C@@H](CCCNC(=N)N)C(=O)N[C@@H](CCCCN)C(=O)N[C@@H](CCCNC(=N)N)C(=O)N[C@@H](CC(C)C)C(=O)N[C@@H](CC(C)C)C(=O)N[C@@H](CC(C)C)C(=O)N[C@@H](CCCNC(=N)N)C(=O)N[C@@H](CCCCN)C(=O)N[C@@H](CC(C)C)C(=O)N[C@@H](CCCNC(=N)N)C(=O)N[C@@H](CCCCN)C(=O)N[C@@H](CCCNC(=N)N)C(=O)N[C@@H](CC(C)C)C(=O)N[C@@H](CC(C)C)C(N)=O` [GIN 1p] (Ac-LRKLRKRLLLRKLRKRLL-NH2), in test [1], the “anti-HIV activity (in words)” value was “no detectable anti-HIV activity”. In test [2], the “efficacy for reducing HSV1 infectivity (in words)” value is “had anti-HSV-1 properties”.
With `CC(=O)N[C@@H](Cc1c[nH]c2ccccc12)C(=O)N[C@@H](CCCNC(=N)N)C(=O)N[C@@H](CCCCN)C(=O)N[C@@H](Cc1c[nH]c2ccccc12)C(=O)N[C@@H](CCCNC(=N)N)C(=O)N[C@@H](CCCCN)C(=O)N[C@@H](CCCNC(=N)N)C(=O)N[C@@H](Cc1c[nH]c2ccccc12)C(=O)N[C@@H](CCCNC(=N)N)C(=O)N[C@@H](CCCCN)C(=O)N[C@@H](Cc1c[nH]c2ccccc12)C(=O)N[C@@H](CCCNC(=N)N)C(=O)N[C@@H](CCCCN)C(=O)N[C@@H](CCCNC(=N)N)C(N)=O` [GIN 32] (Ac-WRKWRKRWRKWRKR-NH2), the IC50 in test [2] was found to be 10 µM; in test [3], 6.25 µM; in test [4], 7.5 µM. Besides, in test [2], the “efficacy for reducing HSV1 infectivity (in words)” value is “also had efficacy”.
Turning to `CC(=O)N[C@@H](Cc1c[nH]c2ccccc12)C(=O)N[C@@H](CCCNC(=N)N)C(=O)N[C@@H](CCCCN)C(=O)N[C@@H](Cc1c[nH]c2ccccc12)C(=O)N[C@@H](CCCNC(=N)N)C(=O)N[C@@H](CCCCN)C(=O)N[C@@H](CCCNC(=N)N)C(=O)N[C@@H](Cc1c[nH]c2ccccc12)C(=O)N[C@@H](CCCNC(=N)N)C(=O)N[C@@H](CCCCN)C(=O)N[C@@H](Cc1c[nH]c2ccccc12)C(=O)N[C@@H](CCCNC(=N)N)C(=O)N[C@@H](CCCCN)C(=O)N[C@@H](CCCNC(=N)N)C(=O)N[C@@H](Cc1c[nH]c2ccccc12)C(N)=O` [MU 59] (Ac-WRKWRKRWRKWRKRW-NH2), the 50% inhibitory concentration (IC50) is 9.75 µM in test [2] and 10 µM in test [3].
The like results for `CC(=O)N[C@@H](Cc1c[nH]c2ccccc12)C(=O)N[C@@H](CCCNC(=N)N)C(=O)N[C@@H](CCCCN)C(=O)N[C@@H](Cc1c[nH]c2ccccc12)C(=O)N[C@@H](CCCNC(=N)N)C(=O)N[C@@H](CCCCN)C(=O)N[C@@H](CCCNC(=N)N)C(=O)N[C@@H](Cc1c[nH]c2ccccc12)C(=O)N[C@@H](Cc1c[nH]c2ccccc12)C(=O)N[C@@H](CCCNC(=N)N)C(=O)N[C@@H](Cc1c[nH]c2ccccc12)C(=O)N[C@@H](CCCNC(=N)N)C(=O)N[C@@H](CCCCN)C(=O)N[C@@H](Cc1c[nH]c2ccccc12)C(=O)N[C@@H](CCCNC(=N)N)C(=O)N[C@@H](CCCCN)C(=O)N[C@@H](CCCNC(=N)N)C(=O)N[C@@H](Cc1c[nH]c2ccccc12)C(=O)N[C@@H](Cc1c[nH]c2ccccc12)C(=O)N[C@@H](CCCNC(=N)N)C(N)=O` [MU 83] (Ac-WRKWRKRWWRWRKWRKRWWR-NH2) were, in that order, 2.5 µM and less than 3.3 µM.
The corresponding values for `CC(=O)N[C@@H](CC(C)C)C(=O)N[C@@H](CCCNC(=N)N)C(=O)N[C@@H](CCCCN)C(=O)N[C@@H](CC(C)C)C(=O)N[C@@H](CCCNC(=N)N)C(=O)N[C@@H](CCCCN)C(=O)N[C@@H](CCCNC(=N)N)C(=O)N[C@@H](CC(C)C)C(=O)N[C@@H](CC(C)C)C(=O)N[C@@H](Cc1c[nH]c2ccccc12)C(=O)N[C@@H](CCCNC(=N)N)C(=O)N[C@@H](CCCCN)C(=O)N[C@@H](Cc1c[nH]c2ccccc12)C(=O)N[C@@H](CCCNC(=N)N)C(=O)N[C@@H](CCCCN)C(=O)N[C@@H](CCCNC(=N)N)C(=O)N[C@@H](Cc1c[nH]c2ccccc12)C(=O)N[C@@H](Cc1c[nH]c2ccccc12)C(N)=O` [MU 111] (Ac-LRKLRKRLLWRKWRKRWW-NH2) are 12.5 µM and 6.5 µM.
The like results for `CC(=O)N[C@@H](CC(C)C)C(=O)N[C@@H](CCCNC(=N)N)C(=O)N[C@@H](CCCCN)C(=O)N[C@@H](CC(C)C)C(=O)N[C@@H](CCCNC(=N)N)C(=O)N[C@@H](CCCCN)C(=O)N[C@@H](CCCNC(=N)N)C(=O)N[C@@H](CC(C)C)C(=O)N[C@@H](CC(C)C)C(=O)N[C@@H](CC(C)C)C(=O)N[C@@H](CCCNC(=N)N)C(=O)N[C@@H](CCCCN)C(=O)N[C@@H](CC(C)C)C(=O)N[C@@H](CCCNC(=N)N)C(=O)N[C@@H](CCCCN)C(=O)N[C@@H](CCCNC(=N)N)C(=O)N[C@@H](Cc1c[nH]c2ccccc12)C(=O)N[C@@H](Cc1c[nH]c2ccccc12)C(N)=O` [MU 112] (Ac-LRKLRKRLLLRKLRKRWW-NH2) were, in that order, greater than 20 µM and 16 µM.
Take `CC(=O)N[C@@H](CC(C)C)C(=O)N[C@@H](CCCNC(=N)N)C(=O)N[C@@H](CCCCN)C(=O)N[C@@H](CC(C)C)C(=O)N[C@@H](CCCNC(=N)N)C(=O)N[C@@H](CCCCN)C(=O)N[C@@H](CCCNC(=N)N)C(=O)N[C@@H](CC(C)C)C(=O)N[C@@H](CC(C)C)C(=O)N[C@@H](Cc1c[nH]c2ccccc12)C(=O)N[C@@H](CCCNC(=N)N)C(=O)N[C@@H](CCCCN)C(=O)N[C@@H](Cc1c[nH]c2ccccc12)C(=O)N[C@@H](CCCNC(=N)N)C(=O)N[C@@H](CCCCN)C(=O)N[C@@H](CCCNC(=N)N)C(=O)N[C@@H](CC(C)C)C(=O)N[C@@H](CC(C)C)C(N)=O` [MU 113] (Ac-LRKLRKRLLWRKWRKRLL-NH2): the concentration for half-maximal inhibition (IC50) in test [2] was 18.5 µM; in test [3], 11.8 µM.
The like results for `CC(=O)N[C@@H](Cc1c[nH]c2ccccc12)C(=O)N[C@@H](CCCNC(=N)N)C(=O)N[C@@H](CCCCN)C(=O)N[C@@H](Cc1c[nH]c2ccccc12)C(=O)N[C@@H](CCCNC(=N)N)C(=O)N[C@@H](CCCCN)C(=O)N[C@@H](CCCNC(=N)N)C(=O)N[C@@H](CC(C)C)C(=O)N[C@@H](CC(C)C)C(=O)N[C@@H](CC(C)C)C(=O)N[C@@H](CCCNC(=N)N)C(=O)N[C@@H](CCCCN)C(=O)N[C@@H](CC(C)C)C(=O)N[C@@H](CCCNC(=N)N)C(=O)N[C@@H](CCCCN)C(=O)N[C@@H](CCCNC(=N)N)C(=O)N[C@@H](CC(C)C)C(=O)N[C@@H](CC(C)C)C(N)=O` [MU 114] (Ac-WRKWRKRLLLRKLRKRLL-NH2) were, in that order, 16 µM and 9 µM.

Values taken from patent publication US7691382B2, “Antiviral polypeptides comprising tandem repeats of APOE 141-149 and variants thereof” (priority 2003, dated 2010).
